Results on 24 molecules are retold here after ChEMBL document CHEMBL5335860, “Imidazole Bioisostere Activators of Endopeptidase Neurolysin with Enhanced Potency and Metabolic Stability” (ACS Med Chem Lett, 2024).

The source made the active and inactive calls. No cut-off for these calls is given here. Peptide text beside a SMILES is read from it. * marks the point of attachment. NHPhenethyl = c1ccc(CCN*)cc1

A short description of series [1]: Drug concentration in brain of MCAO mouse model at 4 mg/kg, iv measured after 30 mins. Type of series: ADME, organism-based. Particulars: read-out: Ct.
The target of series [2] is T1, Neurolysin, mitochondrial (Homo sapiens, UniProt Q9BYT8). Briefly: Activation of Nln (unknown origin) using Mca-Pro-Leu-Gly-Pro-D-Lys(DNP)- OH as substrate preincubated for 10 mins followed by substrate addition measured for 20 mins by fluorescence based assay.
Target sequence in this assay (Q9BYT8 whole entry): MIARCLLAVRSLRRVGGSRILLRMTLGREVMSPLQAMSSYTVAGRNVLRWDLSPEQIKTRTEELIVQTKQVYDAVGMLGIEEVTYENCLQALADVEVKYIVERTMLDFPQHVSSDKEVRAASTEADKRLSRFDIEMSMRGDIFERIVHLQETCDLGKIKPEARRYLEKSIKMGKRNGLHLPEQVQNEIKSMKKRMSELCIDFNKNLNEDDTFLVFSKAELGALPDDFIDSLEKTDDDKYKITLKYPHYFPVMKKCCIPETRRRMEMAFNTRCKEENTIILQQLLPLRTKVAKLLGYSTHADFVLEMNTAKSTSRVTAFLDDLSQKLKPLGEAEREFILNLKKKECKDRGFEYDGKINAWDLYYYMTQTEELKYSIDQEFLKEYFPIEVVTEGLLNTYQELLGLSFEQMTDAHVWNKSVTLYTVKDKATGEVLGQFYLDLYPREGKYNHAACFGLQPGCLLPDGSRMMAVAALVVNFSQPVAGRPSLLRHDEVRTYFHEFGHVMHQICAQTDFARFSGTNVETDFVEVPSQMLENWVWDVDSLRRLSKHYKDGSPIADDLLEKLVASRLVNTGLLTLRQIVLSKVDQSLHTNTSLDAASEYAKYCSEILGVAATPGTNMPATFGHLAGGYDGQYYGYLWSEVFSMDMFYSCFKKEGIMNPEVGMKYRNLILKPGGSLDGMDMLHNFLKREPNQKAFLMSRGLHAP
Series [3] in a line: Elimination half life in MCAO mouse model at 4 mg/kg, iv. Type of series: ADME, organism-based. Particulars: in vivo, read-out: beta t1/2.
The nature of series [4]: Permeability coefficient in co-culture of primary mouse astrocytes and immortalized mouse endothelial cells at 10 ug/ml by BBB assay. Type of series: ADME. Particulars: dose 10 µg/ml, read-out: Kp (converted).
Series [5] addresses T1, Neurolysin, mitochondrial. Briefly: Activation of Nln (unknown origin) using Mca-Pro-Leu-Gly-Pro-D-Lys(DNP)- OH as substrate preincubated for 10 mins followed by substrate addition measured for 20 mins by fluorescence based assay relative to control. Particulars: filed as activator, time 30.0 min.
Target sequence in this assay (Q9BYT8 38-704 limits assumed): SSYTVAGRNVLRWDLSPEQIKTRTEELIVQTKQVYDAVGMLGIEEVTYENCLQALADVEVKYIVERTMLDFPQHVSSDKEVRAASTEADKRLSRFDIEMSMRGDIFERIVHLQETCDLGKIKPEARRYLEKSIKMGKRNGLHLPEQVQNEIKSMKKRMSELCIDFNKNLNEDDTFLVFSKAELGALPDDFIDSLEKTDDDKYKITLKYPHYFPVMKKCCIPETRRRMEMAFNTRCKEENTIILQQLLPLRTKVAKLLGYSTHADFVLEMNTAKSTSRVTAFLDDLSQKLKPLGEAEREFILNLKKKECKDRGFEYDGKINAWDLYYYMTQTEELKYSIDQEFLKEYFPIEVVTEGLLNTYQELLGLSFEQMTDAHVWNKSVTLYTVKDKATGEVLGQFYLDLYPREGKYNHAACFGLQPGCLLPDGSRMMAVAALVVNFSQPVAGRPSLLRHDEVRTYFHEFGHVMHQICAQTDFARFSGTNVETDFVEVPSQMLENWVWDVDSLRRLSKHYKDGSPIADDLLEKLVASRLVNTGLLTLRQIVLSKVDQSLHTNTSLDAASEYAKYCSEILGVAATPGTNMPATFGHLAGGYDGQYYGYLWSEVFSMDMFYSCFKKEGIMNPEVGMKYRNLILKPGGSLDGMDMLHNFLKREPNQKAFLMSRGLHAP
Series [6] addresses Thimet oligopeptidase (Homo sapiens) (UniProt P52888). Briefly: Inhibition of recombinant THOP1 (unknown origin).
Series [7] concerns the target Angiotensin-converting enzyme 2 (Homo sapiens) (UniProt Q9BYF1). Briefly: Inhibition of C-terminal polyhis-tagged recombinant human ACE2 (1 to 740 residues) expressed in HEK293 cells. Type of series: cell-based.
The nature of series [8]: Half life in mouse plasma at 500 ng/ml measured for 4 hrs by LC-MS/MS analysis. In kind it is ADME, cell-free.
A short description of series [9]: Half life in mouse brain at 500 ng/ml measured for 4 hrs by LC-MS/MS analysis. In kind it is ADME, tissue-based.
For series [10], the target named is Angiotensin-converting enzyme (Homo sapiens) (UniProt P12821). Briefly: Inhibition of C-terminal 10-His-tagged recombinant human ACE (30 to 1261 residues) expressed in mouse myeloma cells. Particulars: Multiple myeloma cell.
In series [11] the target is Neprilysin (Homo sapiens) (UniProt P08473). Briefly: Inhibition of N-terminal polyhis-tagged recombinant human neprilysin (52 to 750 residues) expressed in HEK293 cells. In kind it is cell-based.
Series [12] has as its target Angiotensin-converting enzyme 2 (Homo sapiens) (UniProt Q9BYF1). Briefly: Inhibition of C-terminal polyhis-tagged recombinant human ACE2 (1 to 740 residues) expressed in HEK293 cells relative to control. Type of series: cell-based. Particulars: concentration not given here.
The target of series [13] is Angiotensin-converting enzyme (Homo sapiens) (UniProt P12821). Briefly: Inhibition of C-terminal 10-His-tagged recombinant human ACE (30 to 1261 residues) expressed in mouse myeloma cells relative to control. Particulars: concentration not given here.
Series [14] deals with Thimet oligopeptidase (Homo sapiens) (UniProt P52888). Briefly: Inhibition of recombinant THOP1 (unknown origin) relative to control. Particulars: concentration not given here.
Series [15] deals with Neprilysin (Homo sapiens) (UniProt P08473). Briefly: Inhibition of N-terminal polyhis-tagged recombinant human neprilysin (52 to 750 residues) expressed in HEK293 cells relative to control. Type of series: cell-based. Particulars: concentration not given here.

Sequence of Thimet oligopeptidase (Homo sapiens) (P52888 whole entry, the tested form may be a part): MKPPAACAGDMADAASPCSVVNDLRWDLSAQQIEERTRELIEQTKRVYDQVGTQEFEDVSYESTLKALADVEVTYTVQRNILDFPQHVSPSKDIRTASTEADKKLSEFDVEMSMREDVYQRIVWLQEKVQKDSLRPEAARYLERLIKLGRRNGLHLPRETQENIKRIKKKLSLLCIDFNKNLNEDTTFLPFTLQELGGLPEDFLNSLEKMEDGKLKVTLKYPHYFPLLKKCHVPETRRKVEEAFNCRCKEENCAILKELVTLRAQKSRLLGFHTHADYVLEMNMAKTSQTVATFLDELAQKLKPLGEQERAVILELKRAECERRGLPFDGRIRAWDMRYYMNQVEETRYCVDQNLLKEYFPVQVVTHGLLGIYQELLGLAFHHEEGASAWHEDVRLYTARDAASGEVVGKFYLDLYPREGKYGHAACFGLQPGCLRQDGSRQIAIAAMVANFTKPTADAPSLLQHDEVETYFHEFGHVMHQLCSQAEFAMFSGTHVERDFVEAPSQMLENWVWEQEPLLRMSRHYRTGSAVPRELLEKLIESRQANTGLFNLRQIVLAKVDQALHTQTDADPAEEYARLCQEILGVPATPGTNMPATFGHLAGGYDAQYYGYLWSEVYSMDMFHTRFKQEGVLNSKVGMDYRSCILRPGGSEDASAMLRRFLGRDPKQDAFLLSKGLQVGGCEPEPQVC
Sequence of Angiotensin-converting enzyme 2 (Homo sapiens) (Q9BYF1 18-805 limits assumed): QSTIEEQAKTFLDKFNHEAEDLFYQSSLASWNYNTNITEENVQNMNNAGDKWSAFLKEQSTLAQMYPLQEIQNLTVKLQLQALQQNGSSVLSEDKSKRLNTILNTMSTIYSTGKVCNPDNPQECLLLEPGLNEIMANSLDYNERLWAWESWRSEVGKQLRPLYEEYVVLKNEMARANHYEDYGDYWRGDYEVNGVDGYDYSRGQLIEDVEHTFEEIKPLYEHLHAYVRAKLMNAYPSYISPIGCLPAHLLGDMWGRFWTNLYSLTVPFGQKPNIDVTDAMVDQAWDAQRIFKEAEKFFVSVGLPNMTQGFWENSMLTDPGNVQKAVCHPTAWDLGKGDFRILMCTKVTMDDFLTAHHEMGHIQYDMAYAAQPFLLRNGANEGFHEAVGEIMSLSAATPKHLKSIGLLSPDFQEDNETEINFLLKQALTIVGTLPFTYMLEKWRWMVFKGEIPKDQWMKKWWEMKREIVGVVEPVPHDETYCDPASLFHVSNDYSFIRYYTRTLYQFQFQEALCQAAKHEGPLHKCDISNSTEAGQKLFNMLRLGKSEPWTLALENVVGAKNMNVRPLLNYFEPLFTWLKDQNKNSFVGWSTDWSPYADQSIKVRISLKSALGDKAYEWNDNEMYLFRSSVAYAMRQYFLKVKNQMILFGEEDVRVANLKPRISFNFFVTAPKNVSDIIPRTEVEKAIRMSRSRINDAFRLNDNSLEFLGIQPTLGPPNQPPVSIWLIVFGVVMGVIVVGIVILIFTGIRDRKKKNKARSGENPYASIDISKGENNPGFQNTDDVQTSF
Sequence of Angiotensin-converting enzyme (Homo sapiens) (P12821 whole entry, the tested form may be a part): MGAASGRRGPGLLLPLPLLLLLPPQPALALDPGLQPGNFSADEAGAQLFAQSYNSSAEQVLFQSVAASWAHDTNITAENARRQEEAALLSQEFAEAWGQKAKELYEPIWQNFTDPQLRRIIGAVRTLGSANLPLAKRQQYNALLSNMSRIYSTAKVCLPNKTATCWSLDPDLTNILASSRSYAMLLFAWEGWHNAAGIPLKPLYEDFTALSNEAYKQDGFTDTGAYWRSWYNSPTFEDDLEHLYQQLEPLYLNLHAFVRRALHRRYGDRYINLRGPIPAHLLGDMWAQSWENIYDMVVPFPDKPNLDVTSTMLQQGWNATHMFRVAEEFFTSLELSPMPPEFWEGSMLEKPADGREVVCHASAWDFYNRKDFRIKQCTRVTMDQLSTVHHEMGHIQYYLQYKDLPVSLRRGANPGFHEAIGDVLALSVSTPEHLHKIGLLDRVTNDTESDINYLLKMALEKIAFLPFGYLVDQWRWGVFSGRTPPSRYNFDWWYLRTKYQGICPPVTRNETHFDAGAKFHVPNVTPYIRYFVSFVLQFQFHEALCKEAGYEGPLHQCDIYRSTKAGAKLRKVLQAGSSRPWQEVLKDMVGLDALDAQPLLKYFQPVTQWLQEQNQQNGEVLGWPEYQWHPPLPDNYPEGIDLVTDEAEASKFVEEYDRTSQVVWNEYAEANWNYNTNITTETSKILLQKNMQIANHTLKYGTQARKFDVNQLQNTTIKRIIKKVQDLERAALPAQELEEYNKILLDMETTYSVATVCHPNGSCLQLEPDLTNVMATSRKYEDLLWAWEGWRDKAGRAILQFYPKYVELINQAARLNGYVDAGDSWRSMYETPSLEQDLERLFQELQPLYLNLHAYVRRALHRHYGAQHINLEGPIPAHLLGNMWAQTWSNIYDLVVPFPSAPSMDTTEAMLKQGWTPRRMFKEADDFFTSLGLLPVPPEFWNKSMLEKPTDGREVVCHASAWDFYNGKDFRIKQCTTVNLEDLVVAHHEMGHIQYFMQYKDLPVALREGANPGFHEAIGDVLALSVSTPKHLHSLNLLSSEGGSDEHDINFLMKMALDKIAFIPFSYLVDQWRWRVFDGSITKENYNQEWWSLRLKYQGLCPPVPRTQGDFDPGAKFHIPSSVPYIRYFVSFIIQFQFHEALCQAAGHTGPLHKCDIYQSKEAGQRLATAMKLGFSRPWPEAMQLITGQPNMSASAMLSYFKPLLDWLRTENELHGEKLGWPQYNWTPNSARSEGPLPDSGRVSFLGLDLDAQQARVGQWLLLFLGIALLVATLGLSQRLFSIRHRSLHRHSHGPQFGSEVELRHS
Sequence of Neprilysin (Homo sapiens) (P08473 whole entry, the tested form may be a part): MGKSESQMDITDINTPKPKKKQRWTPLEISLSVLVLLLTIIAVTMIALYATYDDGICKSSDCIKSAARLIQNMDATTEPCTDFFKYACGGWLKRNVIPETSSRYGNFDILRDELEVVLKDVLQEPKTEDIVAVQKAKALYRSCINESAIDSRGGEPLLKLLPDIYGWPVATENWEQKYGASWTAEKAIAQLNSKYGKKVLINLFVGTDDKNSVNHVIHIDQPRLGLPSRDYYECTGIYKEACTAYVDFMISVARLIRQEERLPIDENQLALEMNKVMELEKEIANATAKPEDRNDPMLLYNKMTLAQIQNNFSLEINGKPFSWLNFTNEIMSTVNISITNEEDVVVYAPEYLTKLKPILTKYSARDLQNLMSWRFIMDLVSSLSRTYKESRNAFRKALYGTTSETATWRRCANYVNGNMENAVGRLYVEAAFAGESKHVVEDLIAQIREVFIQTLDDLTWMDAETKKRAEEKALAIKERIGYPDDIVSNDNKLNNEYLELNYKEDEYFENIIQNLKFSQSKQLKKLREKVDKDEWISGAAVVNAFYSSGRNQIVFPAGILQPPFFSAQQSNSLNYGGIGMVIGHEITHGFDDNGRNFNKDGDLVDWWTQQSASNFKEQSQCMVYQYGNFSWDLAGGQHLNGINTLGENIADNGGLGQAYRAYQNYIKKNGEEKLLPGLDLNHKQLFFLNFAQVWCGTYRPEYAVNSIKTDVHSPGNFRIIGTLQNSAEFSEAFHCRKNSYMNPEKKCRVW

`N[C@@H](Cc1c[nH]cn1)C(=O)Nc1cccc2cccnc12`: the concentration at 0.5 h in series [1] came to 260 nM. In addition, in [2] (read-out: EC50), the half-maximal effective concentration (EC50) (in general, the midpoint of the concentration-response curve) worked out at 7 µM. In addition, the half-life in [3] was found to be 0.5 h. The Papp at 10 ug/ml in [4] is 19 ×10⁻⁶ cm/s.
Consider `N[C@@H](Cc1c[nH]cn1)C(=O)NCC(=O)c1ccc2ccccc2c1`, for which, in series [2], the EC50 entry is listed as “Not Active”.
Consider `N[C@@H](Cc1c[nH]cn1)C(=O)N1CCC(Cc2ccccc2F)CC1`, for which the 50% effective concentration (EC50) in [2] (read-out: EC50) was determined as 4.3 µM. Moreover, in [5], the Emax (in general, the greatest response seen or fitted, relative to the assay's reference) worked out at 237%.
On to `N[C@H](Cc1c[nH]cn1)c1ncc(-c2ccc3ccccc3c2)[nH]1`, for which, in series [2] (read-out: EC50), the EC50 stood at 6.8 µM. In series [5], this molecule displayed a maximal response (Emax) of 138%.
The matching figures for `N[C@@H](Cc1c[nH]cn1)C(=O)NCc1ccc2ccccc2c1`: 4.4 µM and 211%.
For `N[C@@H](Cc1c[nH]cn1)C(=O)N(CCc1c[nH]c2ccccc12)Cc1ccccc1`, in that order: 5.2 µM and 307%.
With `N[C@H](Cc1c[nH]cn1)c1ncc(-c2ccc(Cl)cc2)[nH]1`, the inhibition result in series [6], in series [7], in series [10] and in series [11] was “inactive” in each case. In addition, in [2] (read-out: EC50), the EC50 was 2 µM. Further, the half-life at 500 ng/ml stood at 8.15 h in series [8] and 1.81 h in series [9]. Further, the Emax in [5] came out at 282%. The Papp at 10 ug/ml in series [4] is 6 ×10⁻⁶ cm/s.
Turning to `CN(Cc1cccc2ccccc12)C(=O)[C@H](N)Cc1c[nH]cn1`, the concentration for a half-maximal effect (EC50) in series [2] (read-out: EC50) was found to be 3.6 µM. The maximal response (Emax) in series [5] turned out to be 324%.
Consider `N[C@@H](Cc1c[nH]cn1)C(=O)N[C@@H](Cc1ccccc1)C(=O)NCc1cccc2ccccc12`, for which the EC50 entry in [2] is given as “Not Active”.
Turning to `N[C@@H](Cc1c[nH]cn1)c1ncc(-c2ccc3ccccc3c2)[nH]1`, the EC50 in [2] (read-out: EC50) was determined as 5.5 µM. The molecule also displayed a maximum response (Emax) in [5] of 268%.
For `N[C@@H](Cc1c[nH]cn1)C(=S)NCc1cccc2ccccc12`, in that order: 3.4 µM and 279%.
Consider `N[C@@H](Cc1c[nH]cn1)C(=O)NCC(=O)c1ccc(Cl)cc1`, for which the EC50 in series [2] (read-out: EC50) came to 33.7 µM. Further, the maximal response (Emax) in series [5] came out at 130%.
Turning to `N[C@@H](Cc1c[nH]cn1)C(=O)N[C@@H](Cc1ccccc1)C(=O)NCCc1ccccc1` (H-His-Phe-NHPhenethyl), in series [2] (read-out: EC50), the EC50 was 5.4 µM. Besides, in series [5], the maximal response (Emax) stood at 178%.
The matching figures for `N[C@H](Cc1c[nH]cn1)C(=O)N1CCC(Cc2ccccc2F)CC1`: 5.4 µM and 272%.
Consider `N[C@@H](Cc1c[nH]cn1)C(=O)N[C@@H](Cc1ccccc1)C(=O)O` (H-His-Phe-OH), for which the concentration for a half-maximal effect (EC50) in series [2] (read-out: EC50) worked out at 85.5 µM. Besides, the half-life at 500 ng/ml in series [8] is 0.57 h. Further, the Papp at 10 ug/ml in series [4] was 1.17 ×10⁻⁶ cm/s.
Take `CC(C)[C@H](NC(=O)[C@@H](N)Cc1c[nH]cn1)C(=O)NCc1cccc2ccccc12`: the EC50 result in series [2] is on record as “Not Active”.
Take `CN(Cc1cccc2ccccc12)C(=O)[C@@H](N)Cc1c[nH]cn1`: the EC50 in series [2] (read-out: EC50) was determined as 3.8 µM. Moreover, the Emax in series [5] amounted to 345%.
The matching figures for `N[C@@H](Cc1c[nH]cn1)C(=O)N1CCc2ccccc2C1`: 32.6 µM and 380%.
`N[C@@H](Cc1c[nH]cn1)C(=O)NCCc1ccc(F)cc1`: the half-maximal effective concentration (EC50) in series [2] (read-out: EC50) is 11.6 µM.
`N[C@@H](Cc1c[nH]cn1)c1ncc(-c2ccc(Cl)cc2)[nH]1`: the concentration for a half-maximal effect (EC50) in series [2] (read-out: EC50) is 2.9 µM. Further, in series [5], the Emax worked out at 318%.
For `N[C@@H](Cc1c[nH]cn1)C(=O)Nc1ccccc1`, in series [2] (read-out: EC50), the 50% effective concentration (EC50) is 252 µM. Also, the Emax in series [5] was 467%.
For the molecule `N[C@@H](Cc1c[nH]cn1)c1ncc(-c2cccc3ccccc23)[nH]1`, the EC50 in series [2] (read-out: EC50) turned out to be 4.1 µM. The inhibition in series [12], in series [13], in [14] and in [15] was 20% each time. The half-life at 500 ng/ml is more than 16.7 h in series [8] and 1.77 h in [9]. In addition, in series [5], the maximal response (Emax) turned out to be 244%. In [4], the Papp at 10 ug/ml was 13.8 ×10⁻⁶ cm/s.
Take `N[C@@H](Cc1c[nH]cn1)C(=O)NCc1cccc2ccccc12`: the figures for the half-life at 500 ng/ml in series [8] and in series [9] were more than 16.7 h and 1.34 h, respectively. In series [5], this molecule came in with an Emax of 264%. The Papp at 10 ug/ml in series [4] was 18.3 ×10⁻⁶ cm/s.
Take `N[C@@H](Cc1c[nH]cn1)C(=O)NCCc1ccc(Cl)cc1`: the concentration for a half-maximal effect (EC50) in series [2] (read-out: EC50) came out at 25 µM. The molecule further yielded an Emax in [5] of 404%.
